Molecular target: T1, TET2CDΔLCI (Homo sapiens, UniProt Q6N021)
T1 construct: FLAG-[thrombin cleavage site]-SUMO (N); made in house; host or cells: E. coli
Experiment: Continuous reaction monitoring (1H NMR), 2OG decarboxylation
Format: biochemical
Conditions: for V0 TET2: 20 µM DNA, 100 μM 2OG, 5 μM TET2CDΔLCI; for Relative V0 TET2: relative to reactions without DNA
Method: Double-stranded DNA oligomers were added at a final concentration of 20 µM. Data plotted from two independent replicates (n = 2). Initial rates reported as the mean of two independent replicates (n = 2). TEXT PRINTED IN THE PICTURE: (c) No DNA: V0 (μM min^−1) NgTet1: 0.36; V0 (μM min^−1) TET2: 1.28; Relative V0 NgTet1: 1; Relative V0 TET2: 1 | (c) ^5HC DNA: V0 (μM min^−1) NgTet1: 1.30; V0 (μM min^−1) TET2: 6.34; Relative V0 NgTet1: 3.6; Relative V0 TET2: 5.0 | (c) AT DNA: V0 (μM min^−1) NgTet1: 0.82; V0 (μM min^−1) TET2: 5.78; Relative V0 NgTet1: 2.3; Relative V0 TET2: 4.5 | (c) ^5mC DNA: V0 (μM min^−1) NgTet1: 1.52; V0 (μM min^−1) TET2: 6.79; Relative V0 NgTet1: 4.2; Relative V0 TET2: 5.3
All ^1H NMR spectra were recorded at 25 °C using D2O as a reference for internal deuterium lock on a Bruker Avance III 700 MHz equipped with an inverse TCI cryoprobe in 3 or 5 mm diameter tubes with a total sample volume of 160 or 565 μL, respectively. The water signal was reduced using Perfect Echo excitation sculpting suppression. Chemical shifts are reported in ppm relative to D2O (δH = 4.70 ppm).
Spectrometer settings were determined using a control sample containing all reaction components excluding enzyme. TET enzyme was added to an identical sample, and the resulting assay mixture was transferred to an NMR tube before deposition into the instrument. […] Data acquisition was started following a brief spectrometer setting optimisation (up to 200 s delay between enzyme addition and data acquisition); 8–32 scans were accumulated for a single spectrum, corresponding to 65–179 s of acquisition time. Spectrum recordings were carried out consecutively without delay. Data were processed using automated routines on MestReNova v14.2.0; signals of interest were integrated with absolute intensity scaling. ^1H NMR time courses reported in figures are representative results from two or three independent replicates.

[1] = n = 1, time (min) 5HC DNA 5.78333, AT DNA 5.73333, 5mC DNA 5.58333
[2] = n = 1, time (min) 5HC DNA 8.86667, AT DNA 8.81667, 5mC DNA 8.65
[3] = n = 1, time (min) 5HC DNA 11.95, AT DNA 11.8833, 5mC DNA 11.7333
[4] = n = 1, time (min) 5HC DNA 15.0333, AT DNA 14.9667, 5mC DNA 14.8167
[5] = n = 1, time (min) 5HC DNA 18.1167, AT DNA 18.05, 5mC DNA 17.9
[6] = n = 1, time (min) 5HC DNA 21.2333, AT DNA 21.1333, 5mC DNA 21
[7] = n = 1, time (min) 5HC DNA 24.3333, AT DNA 24.2167, 5mC DNA 24.0667
[8] = n = 1, time (min) 5HC DNA 27.4167, AT DNA 27.3, 5mC DNA 27.15
[9] = n = 1, time (min) 5HC DNA 30.55, AT DNA 30.3833, 5mC DNA 30.2333
[10] = n = 1, time (min) 5HC DNA 33.65, AT DNA 33.4667, 5mC DNA 33.3167
[11] = n = 1, time (min) 5HC DNA 36.7333, AT DNA 36.5333, 5mC DNA 36.4
[12] = n = 1, time (min) 5HC DNA 39.8333, AT DNA 39.6167, 5mC DNA 39.4833
[13] = n = 1, time (min) 5HC DNA 42.9, AT DNA 42.7, 5mC DNA 42.5667
[14] = n = 1, time (min) 5HC DNA 46, AT DNA 45.7833, 5mC DNA 45.6667
[15] = n = 1, time (min) 5HC DNA 49.0833, AT DNA 48.8667, 5mC DNA 48.75
[16] = n = 1, time (min) 5HC DNA 52.1667, AT DNA 51.95, 5mC DNA 51.8333
[17] = n = 1, time (min) 5HC DNA 55.25, AT DNA 55.0333, 5mC DNA 54.9167
[18] = n = 1, time (min) 5HC DNA 58.3167, AT DNA 58.1167, 5mC DNA 58
[19] = n = 1, time (min) 5HC DNA 61.4, AT DNA 61.2667, 5mC DNA 61.1
[20] = n = 2, time (min) 5HC DNA 5.66667, AT DNA 5.66667, 5mC DNA 5.8
[21] = n = 2, time (min) 5HC DNA 8.75, AT DNA 8.75, 5mC DNA 8.88333
[22] = n = 2, time (min) 5HC DNA 11.8333, AT DNA 11.85, 5mC DNA 11.9667
[23] = n = 2, time (min) 5HC DNA 14.9167, AT DNA 14.9333, 5mC DNA 15.05
[24] = n = 2, time (min) 5HC DNA 18.0167, AT DNA 18.0167, 5mC DNA 18.1167
[25] = n = 2, time (min) 5HC DNA 21.1, AT DNA 21.1, 5mC DNA 21.2
[26] = n = 2, time (min) 5HC DNA 24.1833, AT DNA 24.1667, 5mC DNA 24.2833
[27] = n = 2, time (min) 5HC DNA 27.25, AT DNA 27.25, 5mC DNA 27.3667
[28] = n = 2, time (min) 5HC DNA 30.3333, AT DNA 30.3333, 5mC DNA 30.45
[29] = n = 2, time (min) 5HC DNA 33.4167, AT DNA 33.4167, 5mC DNA 33.5333
[30] = n = 2, time (min) 5HC DNA 36.5, AT DNA 36.5, 5mC DNA 36.6167
[31] = n = 2, time (min) 5HC DNA 39.5833, AT DNA 39.5833, 5mC DNA 39.7
[32] = n = 2, time (min) 5HC DNA 42.6667, AT DNA 42.6667, 5mC DNA 42.7833
[33] = n = 2, time (min) 5HC DNA 45.75, AT DNA 45.75, 5mC DNA 45.8667
[34] = n = 2, time (min) 5HC DNA 48.8333, AT DNA 48.8333, 5mC DNA 48.95

| Substance | V0 TET2 | succinate [1] | succinate [2] | succinate [3] | succinate [4] | succinate [5] | succinate [6] | succinate [7] | succinate [8] | succinate [9] | succinate [10] | succinate [11] | succinate [12] | succinate [13] | succinate [14] | succinate [15] | succinate [16] | succinate [17] | succinate [18] | succinate [19] | also measured |
| --- | --- | --- | --- | --- | --- | --- | --- | --- | --- | --- | --- | --- | --- | --- | --- | --- | --- | --- | --- | --- | --- |
| 5HC DNA: non-methylated DNA of the same sequence, 5'-ACC ACC GGT GGT-3', non-substrate (DNA ACCACCGGTGGT; DNA, backbone not given here) | 6.34 µM/min | 44.3007 µM | 54.4828 µM | 59.3102 µM | 61.4847 µM | 65.1131 µM | 67.3764 µM | 68.0997 µM | 69.3831 µM | 70.6241 µM | 71.0252 µM | 71.8004 µM | 71.1327 µM | 71.8764 µM | 73.8393 µM | 72.8966 µM | 73.2704 µM | 74.052 µM | 74.0256 µM | 74.622 µM | succinate [20]: 46.0808 µM; succinate [21]: 55.6216 µM; succinate [22]: 60.916 µM; succinate [23]: 64.6085 µM; succinate [24]: 67.8421 µM; succinate [25]: 69.2588 µM; succinate [26]: 70.2836 µM; succinate [27]: 71.3409 µM; succinate [28]: 71.8731 µM; succinate [29]: 71.8297 µM; succinate [30]: 74.102 µM; succinate [31]: 75.5956 µM; succinate [32]: 75.7723 µM; succinate [33]: 76.9891 µM; succinate [34]: 76.9274 µM; Relative V0 TET2: 5.0 |
| AT DNA: double-stranded self-complementary 5'-ACC ACA TGT GGT-3', CpG replaced by ApT (DNA ACCACATGTGGT; DNA, backbone and methylation of C not given here; self-complementary duplex) | 5.78 µM/min | 39.5956 µM | 49.5065 µM | 54.2458 µM | 57.9674 µM | 59.2828 µM | 62.1944 µM | 62.9572 µM | 64.7984 µM | 64.7023 µM | 65.163 µM | 66.9776 µM | 66.6376 µM | 66.8738 µM | 68.072 µM | 67.0651 µM | 67.7938 µM | 69.134 µM | 67.5356 µM | 68.2246 µM | succinate [20]: 40.358 µM; succinate [21]: 49.4783 µM; succinate [22]: 54.4351 µM; succinate [23]: 56.62 µM; succinate [24]: 59.0171 µM; succinate [25]: 60.9868 µM; succinate [26]: 62.4531 µM; succinate [27]: 63.5112 µM; succinate [28]: 64.7948 µM; succinate [29]: 64.9179 µM; succinate [30]: 65.839 µM; succinate [31]: 65.6357 µM; succinate [32]: 67.3494 µM; succinate [33]: 68.1347 µM; succinate [34]: 66.7934 µM; Relative V0 TET2: 4.5 |

Reference: PMC11662004 (Communications Chemistry, 2024)
